Molecular target: T1, c-Rel protein (Homo sapiens, UniProt Q04864)
T1 sequence (Q04864 1-619): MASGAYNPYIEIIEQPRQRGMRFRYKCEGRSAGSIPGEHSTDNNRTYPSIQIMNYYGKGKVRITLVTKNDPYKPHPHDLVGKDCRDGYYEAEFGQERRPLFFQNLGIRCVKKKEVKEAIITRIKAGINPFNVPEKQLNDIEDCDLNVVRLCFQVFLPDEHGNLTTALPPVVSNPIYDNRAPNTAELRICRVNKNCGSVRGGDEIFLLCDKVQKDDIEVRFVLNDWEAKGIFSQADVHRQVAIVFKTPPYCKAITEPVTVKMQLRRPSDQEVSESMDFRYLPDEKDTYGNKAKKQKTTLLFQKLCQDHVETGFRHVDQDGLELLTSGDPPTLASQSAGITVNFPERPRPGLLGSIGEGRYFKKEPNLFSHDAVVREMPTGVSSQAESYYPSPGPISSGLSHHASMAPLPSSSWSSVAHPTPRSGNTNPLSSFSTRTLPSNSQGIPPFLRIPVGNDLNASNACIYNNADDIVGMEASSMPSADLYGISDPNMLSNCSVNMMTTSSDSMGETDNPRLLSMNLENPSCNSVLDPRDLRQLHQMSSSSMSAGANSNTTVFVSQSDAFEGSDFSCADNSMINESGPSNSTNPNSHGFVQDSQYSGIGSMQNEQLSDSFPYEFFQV
Test: Electrophoretic Mobility Shift Assay (EMSA), c-Rel binding to CD28RE oligonucleotide
Details: 10 nM c-Rel protein
Protocol: DNA binding reaction (20 μL) was carried out in 1×DNA Binding Buffer (10 mM Tris, 40 mM NaCl, 1 mM EDTA, 4% glycerol) with 10 nM c-Rel protein and 0.5 ng phosphor-labeled CD28RE oligonucleotide for 10 minutes at room temperature in 96-well plates. Test compounds, in serial dilutions, were added into each well, and further incubated for 15 minutes before loading onto native 5% polyacrylamide gel. Electrophoresis proceeded for 2.5 hours at 160V. Radioactive signals were quantified using Phospho-Imager. IC50 of compounds of example 1 to 75 were determined by quantifying the intensity of Rel/NF-κB inhibition in EMSA using phospho-imager. An example of EMSA data of the present invention is shown for compound 6 in FIG. 2.

Question: For CCCCCOc1ccc2cc3c(=O)[nH]c(=O)nc-3oc2c1Cl [compound 39], which IC50 is on record?
Answer: < 0.5 µM

Question: Which IC50 does the source give for COc1ccc2cc3c(=O)[nH]c(=S)nc-3oc2c1 [compound 8, 8-methoxy-2-thioxo-2H-chromeno[2,3-d]pyrimidin-4(3H)-one] here?
Answer: < 0.5 µM

Question: For COCCOCCCOc1cc2oc3nc(=O)[nH]c(=O)c-3cc2cc1Cl [compound 74], which IC50 is on record?
Answer: < 1 µM

Question: With CCOc1ccc2cc3c(=O)[nH]c(=O)nc-3oc2c1Cl [compound 22, 9-chloro-8-ethoxy-2H-chromeno[2,3-d]pyrimidine-2,4(3H)-dione] as the compound, how does the IC50 read?
Answer: < 1 µM

Question: For COc1cc(Cl)cc2cc3c(=O)[nH]c(=O)nc-3oc12 [compound 3, 7-chloro-9-methoxy-2H-chromeno[2,3-d]pyrimidine-2,4(3H)-dione], which IC50 is on record?
Answer: < 2 µM

Question: For O=C(O)CCCOc1ccc2cc3c(=O)[nH]c(=O)nc-3oc2c1Cl [compound 55], which IC50 is on record?
Answer: < 5 µM

Question: Which IC50 does the source give for CCOc1ccc2cc3c(=O)[nH]c(=O)nc-3sc2c1 [compound 49, 8-ethoxy-2H-thiochromeno[2,3-d]pyrimidine-2,4(3H)-dione] here?
Answer: < 1 µM

Question: For COCCOCCOc1ccc2cc3c(=O)[nH]c(=O)nc-3oc2c1F [compound 63], which IC50 is on record?
Answer: < 1 µM

Question: CCCCCCCOc1cc2oc3nc(=O)[nH]c(=O)c-3cc2cc1F [compound 32] was tested. Which IC50 did it give?
Answer: < 0.5 µM

Question: Which IC50 does the source give for COCCCCOc1ccc2cc3c(=O)[nH]c(=O)nc-3oc2c1F [compound 68] here?
Answer: < 1 µM

Question: With CCCCOc1ccc2cc3c(=O)[nH]c(=O)nc-3oc2c1 [compound 50] as the compound, how does the IC50 read?
Answer: < 1 µM

Question: For CCCCOc1ccc2cc3c(=O)[nH]c(=O)nc-3oc2c1Cl [compound 43], which IC50 is on record?
Answer: < 0.5 µM

Question: For COc1cc(Br)cc2cc3c(=O)[nH]c(=O)nc-3oc12 [compound 4, 7-bromo-9-methoxy-2H-chromeno[2,3-d]pyrimidine-2,4(3H)-dione], which IC50 is on record?
Answer: < 2 µM

Question: Which IC50 does the source give for O=c1nc2oc3ccccc3cc-2c(=O)[nH]1 [compound 9, 2H-chromeno[2,3-d]pyrimidine-2,4(3H)-dione] here?
Answer: < 5 µM

Question: For CC(=O)OCCCCOc1ccc2cc3c(=O)[nH]c(=O)nc-3oc2c1 [compound 51], which IC50 is on record?
Answer: < 1 µM

Question: With CCCCCCOc1ccc2cc3c(=O)[nH]c(=O)nc-3oc2c1Cl [compound 44] as the compound, how does the IC50 read?
Answer: < 0.5 µM

Question: Which IC50 does the source give for CC(C)(C)CCOc1cc2oc3nc(=O)[nH]c(=O)c-3cc2cc1F [compound 34] here?
Answer: < 0.5 µM

Question: With COCCCCOc1cc2oc3nc(=O)[nH]c(=O)c-3cc2cc1F [compound 70] as the compound, how does the IC50 read?
Answer: < 1 µM

Question: With COCCOCCOc1ccc2cc3c(=O)[nH]c(=O)nc-3oc2c1 [compound 61, 8-(2-(2-methoxyethoxy)ethoxy)-2H-chromeno[2,3-d]pyrimidine-2,4(3H)-dione] as the compound, how does the IC50 read?
Answer: < 1 µM

Question: Which IC50 does the source give for CCCCn1c(=O)nc2oc3cc(OCC)ccc3cc-2c1=O [compound 24, 3-(n-butyl)-8-ethoxy-2H-chromeno[2,3-d]pyrimidine-2,4(3H)-dione] here?
Answer: < 1 µM

Question: COc1cccc2cc3c(=O)[nH]c(=O)nc-3oc12 [compound 1, 9-methoxy-2H-chromeno[2,3-d]pyrimidine-2,4(3H)-dione] was tested. Which IC50 did it give?
Answer: < 2 µM

Question: With CC(=O)OCCCCCCOc1ccc2cc3c(=O)[nH]c(=O)nc-3oc2c1Cl [compound 58] as the compound, how does the IC50 read?
Answer: < 5 µM

Question: How did the IC50 turn out when CCCCn1c(=O)nc2oc3cc(OCC)c(Cl)cc3cc-2c1=O [compound 26, 3-butyl-7-chloro-8-ethoxy-2H-chromeno[2,3-d]pyrimidine-2,4(3H)-dione] was run?
Answer: < 1 µM

Question: Cc1cc2oc3nc(=O)[nH]c(=O)c-3cc2cc1F [compound 27, 7-fluoro-8-methyl-2H-chromeno[2,3-d]pyrimidine-2,4(3H)-dione] was tested. Which IC50 did it give?
Answer: < 0.5 µM

Question: How did the IC50 turn out when CC(C)CCOc1ccc2cc3c(=O)[nH]c(=O)nc-3oc2c1Cl [compound 40] was run?
Answer: < 0.5 µM

Question: For Cc1ccc2cc3c(=O)[nH]c(=O)nc-3oc2c1 [compound 12, 8-methyl-2H-chromeno[2,3-d]pyrimidine-2,4(3H)-dione], which IC50 is on record?
Answer: < 1 µM

Question: CC(C)(C)CCOc1ccc2cc3c(=O)[nH]c(=O)nc-3oc2c1Cl [compound 41] was tested. Which IC50 did it give?
Answer: < 0.5 µM

Question: CCCc1cc2oc3nc(=O)[nH]c(=O)c-3cc2cc1Cl [compound 25, 7-chloro-8-propyl-2H-chromeno[2,3-d]pyrimidine-2,4(3H)-dione] was tested. Which IC50 did it give?
Answer: < 1 µM

Question: For COCCOCCCOc1ccc2cc3c(=O)[nH]c(=O)nc-3oc2c1Cl [compound 72], which IC50 is on record?
Answer: < 1 µM

Question: COCCOCCOc1cc2oc3nc(=O)[nH]c(=O)c-3cc2cc1F [compound 65] was tested. Which IC50 did it give?
Answer: < 1 µM

Question: CCCCCCCOc1ccc2cc3c(=O)[nH]c(=O)nc-3oc2c1Cl [compound 42] was tested. Which IC50 did it give?
Answer: < 0.5 µM

Question: How did the IC50 turn out when COCCOCCOc1ccc2cc3c(=O)[nH]c(=O)nc-3oc2c1Cl [compound 62] was run?
Answer: < 1 µM

Question: Which IC50 does the source give for CCOc1ccc2cc3c(=O)[nH]c(=O)nc-3oc2c1 [compound 13, 8-ethoxy-2H-chromeno[2,3-d]pyrimidine-2,4(3H)-dione] here?
Answer: < 1 µM

Question: COCCCCOc1ccc2cc3c(=O)[nH]c(=O)nc-3oc2c1Cl [compound 66, 9-chloro-8-(4-methoxybutoxy)-2H-chromeno[2,3-d]pyrimidine-2,4(3H)-dione] was tested. Which IC50 did it give?
Answer: < 1 µM

Question: O=C(O)CCCCCOc1ccc2cc3c(=O)[nH]c(=O)nc-3oc2c1Cl [compound 53, 6-((9-chloro-2,4-dioxo-3,4-dihydro-2H-chromeno[2,3-d]pyrimidin-8-yl)oxy)hexanoic acid] was tested. Which IC50 did it give?
Answer: < 5 µM

Question: How did the IC50 turn out when CCCCCCOc1cc2oc3nc(=O)[nH]c(=O)c-3cc2cc1F [compound 31] was run?
Answer: < 0.5 µM

Question: How did the IC50 turn out when COc1cc(Cl)cc2cc3c(=O)[nH]c(=S)nc-3oc12 [compound 7, 7-chloro-9-methoxy-2-thioxo-2H-chromeno[2,3-d]pyrimidin-4(3H)-one] was run?
Answer: < 2 µM

Question: How did the IC50 turn out when CCCCCCCOc1ccc2cc3c(=O)[nH]c(=O)nc-3oc2c1F [compound 52] was run?
Answer: < 0.5 µM

Question: With CCCCCCOc1ccc2cc3c(=O)[nH]c(=O)nc-3oc2c1F [compound 46] as the compound, how does the IC50 read?
Answer: < 0.5 µM

Question: CCCCCOc1cc2oc3nc(=O)[nH]c(=O)c-3cc2cc1F [compound 30] was tested. Which IC50 did it give?
Answer: < 0.5 µM

Question: For CC(C)COc1ccc2cc3c(=O)[nH]c(=O)nc-3oc2c1F [compound 48], which IC50 is on record?
Answer: < 0.5 µM

Question: With CC(C)(C)COc1cc2oc3nc(=O)[nH]c(=O)c-3cc2cc1F [compound 36] as the compound, how does the IC50 read?
Answer: < 0.5 µM

Question: CCCCCCOc1cc2oc3nc(=O)[nH]c(=O)c-3cc2cc1Cl [compound 37] was tested. Which IC50 did it give?
Answer: < 0.5 µM

Question: Which IC50 does the source give for CCCCCCOc1ccc2cc3c(=O)[nH]c(=O)nc-3oc2c1 [compound 21, 8-(n-hexyloxy)-2H-chromeno[2,3-d]pyrimidine-2,4(3H)-dione] here?
Answer: < 1 µM

Question: How did the IC50 turn out when CC(C)CCCOc1cc2oc3nc(=O)[nH]c(=O)c-3cc2cc1F [compound 35] was run?
Answer: < 1 µM

Question: Which IC50 does the source give for COc1cc(OC)c2cc3c(=O)[nH]c(=S)nc-3oc2c1 [compound 18, 6,8-dimethoxy-2-thioxo-2H-chromeno[2,3-d]pyrimidin-4(3H)-one] here?
Answer: < 0.5 µM

Question: How did the IC50 turn out when COCCOCCOc1cc2oc3nc(=O)[nH]c(=O)c-3cc2cc1Cl [compound 64] was run?
Answer: < 1 µM

Question: How did the IC50 turn out when COCCOCCCOc1ccc2cc3c(=O)[nH]c(=O)nc-3oc2c1 [compound 71] was run?
Answer: < 1 µM

Question: For CC(=O)OCCCOc1ccc2cc3c(=O)[nH]c(=O)nc-3oc2c1Cl [compound 59], which IC50 is on record?
Answer: < 5 µM

Question: How did the IC50 turn out when COc1ccc2oc3nc(=S)[nH]c(=O)c-3cc2c1 [compound 15, 7-methoxy-2-thioxo-2H-chromeno[2,3-d]pyrimidin-4(3H)-one] was run?
Answer: < 0.5 µM

Question: How did the IC50 turn out when CCOc1cccc2cc3c(=O)[nH]c(=O)nc-3oc12 [compound 2, 9-ethoxy-2H-chromeno[2,3-d]pyrimidine-2,4(3H)-dione] was run?
Answer: < 2 µM

From US11083729B2, “Methods of treating cancer with small molecule NF-κB inhibitors” (ImmuneTarget, Inc., priority 2017, dated 2021)
